Assay results from ChEMBL document CHEMBL1135457 (J Med Chem, 2002).

How the values were obtained:
Estrogen receptor = molecular target: T1, Estrogen receptor (Homo sapiens, UniProt P03372); test: Displacement of radioligand from human Estrogen receptor alpha
T1 sequence (P03372 whole entry): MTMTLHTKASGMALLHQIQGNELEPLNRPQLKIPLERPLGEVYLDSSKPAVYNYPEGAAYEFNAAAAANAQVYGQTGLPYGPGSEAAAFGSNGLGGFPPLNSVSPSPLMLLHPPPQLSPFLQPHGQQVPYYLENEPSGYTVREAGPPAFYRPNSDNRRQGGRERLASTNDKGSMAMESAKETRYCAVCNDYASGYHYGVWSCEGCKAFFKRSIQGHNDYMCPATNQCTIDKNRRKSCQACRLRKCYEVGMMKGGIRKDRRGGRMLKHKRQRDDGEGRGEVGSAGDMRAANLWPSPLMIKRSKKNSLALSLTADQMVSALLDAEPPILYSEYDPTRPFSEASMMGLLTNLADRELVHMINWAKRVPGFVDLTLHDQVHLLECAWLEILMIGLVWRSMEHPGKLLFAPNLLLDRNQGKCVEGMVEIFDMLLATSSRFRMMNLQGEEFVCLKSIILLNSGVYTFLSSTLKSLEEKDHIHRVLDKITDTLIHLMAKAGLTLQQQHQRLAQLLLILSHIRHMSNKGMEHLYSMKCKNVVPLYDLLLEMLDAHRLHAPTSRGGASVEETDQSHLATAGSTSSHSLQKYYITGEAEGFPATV

[1] = molecular target: T2, Progesterone receptor (Homo sapiens) (UniProt P06401)
T2 sequence (whole entry): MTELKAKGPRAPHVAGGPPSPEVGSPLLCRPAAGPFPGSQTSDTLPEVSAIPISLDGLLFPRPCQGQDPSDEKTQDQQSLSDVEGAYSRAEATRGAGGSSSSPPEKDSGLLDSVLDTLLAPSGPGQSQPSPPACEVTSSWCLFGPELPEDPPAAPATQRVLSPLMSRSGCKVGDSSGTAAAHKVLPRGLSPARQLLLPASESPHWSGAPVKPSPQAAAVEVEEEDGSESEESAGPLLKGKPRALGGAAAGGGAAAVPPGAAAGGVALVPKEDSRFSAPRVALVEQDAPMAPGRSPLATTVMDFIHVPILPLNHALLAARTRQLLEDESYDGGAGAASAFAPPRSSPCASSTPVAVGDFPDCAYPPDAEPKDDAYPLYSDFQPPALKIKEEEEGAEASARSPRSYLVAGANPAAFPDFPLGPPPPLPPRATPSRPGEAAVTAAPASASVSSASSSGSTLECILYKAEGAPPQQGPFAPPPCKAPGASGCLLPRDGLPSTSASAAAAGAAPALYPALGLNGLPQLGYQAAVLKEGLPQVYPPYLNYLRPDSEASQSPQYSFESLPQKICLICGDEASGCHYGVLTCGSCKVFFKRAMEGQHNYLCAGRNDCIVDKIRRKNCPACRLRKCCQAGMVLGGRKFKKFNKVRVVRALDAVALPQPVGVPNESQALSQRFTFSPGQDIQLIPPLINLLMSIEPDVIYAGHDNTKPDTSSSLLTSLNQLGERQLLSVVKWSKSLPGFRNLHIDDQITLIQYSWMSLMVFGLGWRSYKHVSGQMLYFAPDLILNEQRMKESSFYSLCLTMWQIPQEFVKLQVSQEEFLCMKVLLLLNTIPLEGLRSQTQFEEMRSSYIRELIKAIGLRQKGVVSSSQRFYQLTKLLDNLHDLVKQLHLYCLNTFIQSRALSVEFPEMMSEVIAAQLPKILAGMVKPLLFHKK
Description: Antagonist activity against human Progesterone receptor by displacement of radioligand

[2] = molecular target: T3, Mineralocorticoid receptor (Homo sapiens) (UniProt P08235); test: Antagonist activity against human mineralocorticoid receptor as displacement of radioligand; assay type: functional
T3 sequence (whole entry): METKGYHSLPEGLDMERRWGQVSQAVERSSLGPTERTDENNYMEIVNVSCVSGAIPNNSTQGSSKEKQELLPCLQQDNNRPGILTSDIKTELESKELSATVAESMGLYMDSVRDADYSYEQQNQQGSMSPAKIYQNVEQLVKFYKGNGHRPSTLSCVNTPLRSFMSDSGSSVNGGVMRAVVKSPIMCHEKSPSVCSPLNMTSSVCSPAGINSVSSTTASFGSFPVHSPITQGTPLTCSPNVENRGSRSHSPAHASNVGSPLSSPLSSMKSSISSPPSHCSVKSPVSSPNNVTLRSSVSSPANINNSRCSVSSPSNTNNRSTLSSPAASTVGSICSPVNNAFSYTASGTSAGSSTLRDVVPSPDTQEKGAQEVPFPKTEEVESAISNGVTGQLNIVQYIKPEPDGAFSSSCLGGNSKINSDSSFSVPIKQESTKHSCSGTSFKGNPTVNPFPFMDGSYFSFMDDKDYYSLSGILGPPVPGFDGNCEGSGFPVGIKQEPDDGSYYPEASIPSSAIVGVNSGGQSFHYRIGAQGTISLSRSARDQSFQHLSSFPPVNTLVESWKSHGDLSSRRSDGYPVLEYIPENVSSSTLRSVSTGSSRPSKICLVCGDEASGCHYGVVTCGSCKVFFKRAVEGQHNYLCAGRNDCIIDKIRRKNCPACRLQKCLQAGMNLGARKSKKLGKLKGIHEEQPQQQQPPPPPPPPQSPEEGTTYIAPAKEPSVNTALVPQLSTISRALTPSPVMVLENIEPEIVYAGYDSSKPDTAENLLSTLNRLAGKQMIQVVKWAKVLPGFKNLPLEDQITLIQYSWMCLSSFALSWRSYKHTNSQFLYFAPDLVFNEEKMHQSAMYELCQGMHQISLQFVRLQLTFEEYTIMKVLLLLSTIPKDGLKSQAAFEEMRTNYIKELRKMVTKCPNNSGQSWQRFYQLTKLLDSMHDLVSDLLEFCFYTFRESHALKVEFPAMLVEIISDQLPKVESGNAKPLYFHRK

Structure (SMILES)	Ki (Estrogen receptor) [µM]	Kif [1] [nM]	Kif [2] [nM]
CC#C[C@]1(O)CCC2C3CCC4=CC(=O)CC[C@]4(Cc4ccc(C)cc4)C3=CC[C@@]21C (stereo partly drawn)	> 10	> 1000	–
CC#C[C@@]1(O)CC[C@@]2(Cc3ccccc3)c3ccc(O)cc3CC[C@@H]2C1	–	–	> 1000
